Data on 2 compounds can be found in patent publication US8410278B2, “Method for preparing a non-hydratable crystal form” (E I du Pont de Nemours and Company, priority 2008, dated 2013).

The format of series [1] is physicochemical. An excerpt:
Remarkably water is now discovered to work very well as a solvent in the heated liquid phase for converting Polymorph B to Polymorph A. This is particularly unexpected, because Polymorph B, which can accommodate significant amounts of water in its crystal lattice, can be anticipated to be favored over anhydrous Polymorph A in an aqueous medium. Nevertheless, water is now found to be particularly suitable in forming the liquid phase for conversion of Polymorph B to Polymorph A. Conversion proceeds to near 100% completion and in high yields within commercially convenient time periods at temperatures not exceeding about 100° C. (i.e. the normal boiling point of water). […] Alternatively if Polymorph A is in high concentration in water, Polymorph A can be isolated by evaporation of the water.

Series [2] can be described thus: Crystal form stability during long-term storage. In kind it is physicochemical. An excerpt: (§1) A method has now been discovered for the preparation of a non-hydratable polymorph of Compound 1 (Polymorph A) from a hydratable polymorph of Compound 1 (Polymorph B) that typically is initially formed by procedures for preparing Compound 1. […] This surprising stability facilitates a more consistent assay of Compound 1. These characteristics also make Polymorph A of Compound 1 well suited for the production of long-lasting stable solid formulations, enabling specifying a stable active ingredient content.

A short description of series [3]: Water uptake/loss on exposure to variations in atmospheric humidity. It is filed as physicochemical.
From the text: as §1

Consider `CNC(=O)c1cc(C#N)cc(C)c1NC(=O)c1cc(Br)nn1-c1ncccc1Cl` [Polymorph A, 3-bromo-1-(3-chloro-2-pyridinyl)-N-[4-cyano-2-methyl-6-[(methylamino)carbonyl]phenyl]-1H-pyrazole-5-carboxamide], for which the Solubility in water result in series [1] is “little solubility in water”. The “Conversion to Polymorph B during long-term storage” value in series [2] was “does not typically convert to Polymorph B”. Also, the “Change of water content on exposure to variations in atmospheric humidity” value in series [3] is recorded as “does not gain or lose appreciable amounts of water”.

On to `CNC(=O)c1cc(C#N)cc(C)c1NC(=O)c1cc(Br)nn1-c1ncccc1Cl` [Polymorph B, 3-bromo-1-(3-chloro-2-pyridinyl)-N-[4-cyano-2-methyl-6-[(methylamino)carbonyl]phenyl]-1H-pyrazole-5-carboxamide], for which, in series [3], the “Change of water content on exposure to variations in atmospheric humidity” value is “changes significantly”.
